Measurements: PubChem BioAssay (NCI)
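All cell lines were grown in 96-well plates and treated with compound for 48 hours. GI50 marks 50% less growth. TGI is the concentration that stops growth completely.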

Tests used:
Assay in all cases: DTP human tumour cell line panel, 48 h
UACC-257 melanoma = system: UACC-257 melanoma
SR leukemia = system: SR leukemia
HCT-15 colon = system: HCT-15 colon
SF-295 CNS = system: SF-295 CNS
SK-MEL-28 melanoma = system: SK-MEL-28 melanoma
HS 578T breast = system: HS 578T breast
U251 CNS = system: U251 CNS
MOLT-4 leukemia = system: MOLT-4 leukemia
HOP-62 NSCLC = system: HOP-62 NSCLC
CAKI-1 renal = system: CAKI-1 renal
K-562 leukemia = system: K-562 leukemia
RXF 393 renal = system: RXF 393 renal
OVCAR-8 ovarian = system: OVCAR-8 ovarian
M14 melanoma = system: M14 melanoma
CCRF-CEM leukemia = system: CCRF-CEM leukemia
A549 NSCLC = system: A549 NSCLC
PC-3 prostate = system: PC-3 prostate
HCC-2998 colon = system: HCC-2998 colon
NCI-H23 lung = system: NCI-H23 lung
HCT-116 colon = system: HCT-116 colon
NCI-H522 lung = system: NCI-H522 lung
MDA-MB-231 breast = system: MDA-MB-231 breast
ACHN renal = system: ACHN renal
RPMI-8226 leukemia = system: RPMI-8226 leukemia
DU-145 prostate = system: DU-145 prostate
HOP-92 NSCLC = system: HOP-92 NSCLC
SW-620 colon = system: SW-620 colon
SK-MEL-5 melanoma = system: SK-MEL-5 melanoma
COLO 205 colon = system: COLO 205 colon
UACC-62 melanoma = system: UACC-62 melanoma
T-47D breast = system: T-47D breast
MCF7 breast = system: MCF7 breast
SN12C renal = system: SN12C renal
SK-MEL-2 melanoma = system: SK-MEL-2 melanoma
SNB-75 CNS = system: SNB-75 CNS
NCI-H460 lung = system: NCI-H460 lung
786-0 renal = system: 786-0 renal
HL-60(TB) leukemia = system: HL-60(TB) leukemia
OVCAR-4 ovarian = system: OVCAR-4 ovarian
HT29 colon = system: HT29 colon
OVCAR-5 ovarian = system: OVCAR-5 ovarian
SF-539 CNS = system: SF-539 CNS
MALME-3M melanoma = system: MALME-3M melanoma
SNB-19 CNS = system: SNB-19 CNS
MDA-MB-435 = system: MDA-MB-435
IGROV1 ovarian = system: IGROV1 ovarian
A498 renal = system: A498 renal
SK-OV-3 ovarian = system: SK-OV-3 ovarian
UO-31 renal = system: UO-31 renal
NCI/ADR-RES ovarian = system: NCI/ADR-RES ovarian
LOX IMVI melanoma = system: LOX IMVI melanoma
NCI-H226 lung = system: NCI-H226 lung
SF-268 CNS = system: SF-268 CNS
KM12 colon = system: KM12 colon
BT-549 breast = system: BT-549 breast
EKVX NSCLC = system: EKVX NSCLC

COc1cccc(Nc2nccc(-c3cnn4ncccc34)n2)c1
GI50 (UACC-257 melanoma): 56.3 nM | TGI (UACC-257 melanoma): 160 nM | GI50 (SR leukemia): 11.4 nM | TGI (SR leukemia): 94.6 nM | GI50 (HCT-15 colon): 69.7 nM | TGI (HCT-15 colon): > 25000 nM | GI50 (SF-295 CNS): 49.6 nM | TGI (SF-295 CNS): > 25000 nM | GI50 (SK-MEL-28 melanoma): 39.5 nM | TGI (SK-MEL-28 melanoma): 140 nM | GI50 (HS 578T breast): 38.1 nM | TGI (HS 578T breast): 117 nM | GI50 (U251 CNS): 55.3 nM | TGI (U251 CNS): 9240 nM | GI50 (MOLT-4 leukemia): 78 nM | GI50 (HOP-62 NSCLC): 79.8 nM | TGI (HOP-62 NSCLC): 532 nM | GI50 (CAKI-1 renal): 57.3 nM | TGI (CAKI-1 renal): 3770 nM | GI50 (K-562 leukemia): 115 nM | TGI (K-562 leukemia): > 25000 nM | GI50 (RXF 393 renal): 44.9 nM | TGI (RXF 393 renal): 108 nM | GI50 (OVCAR-8 ovarian): 68.1 nM | TGI (OVCAR-8 ovarian): > 25000 nM | GI50 (M14 melanoma): 77.7 nM | TGI (M14 melanoma): 340 nM | GI50 (CCRF-CEM leukemia): 72.3 nM | GI50 (A549 NSCLC): 69.8 nM | GI50 (PC-3 prostate): 65.2 nM | TGI (PC-3 prostate): 1320 nM | GI50 (HCC-2998 colon): 67.1 nM | TGI (HCC-2998 colon): 238 nM | GI50 (NCI-H23 lung): 53.2 nM | TGI (NCI-H23 lung): 201 nM | GI50 (HCT-116 colon): 47.8 nM | TGI (HCT-116 colon): > 11000 nM | GI50 (NCI-H522 lung): 122 nM | TGI (NCI-H522 lung): 767 nM | GI50 (MDA-MB-231 breast): 83.9 nM | TGI (MDA-MB-231 breast): > 25000 nM | GI50 (ACHN renal): 45.6 nM | TGI (ACHN renal): > 25000 nM | GI50 (RPMI-8226 leukemia): 62.1 nM | TGI (RPMI-8226 leukemia): 166 nM | GI50 (DU-145 prostate): 88.4 nM | TGI (DU-145 prostate): > 25000 nM | GI50 (HOP-92 NSCLC): 39.2 nM | TGI (HOP-92 NSCLC): 157 nM | GI50 (SW-620 colon): 73.9 nM | TGI (SW-620 colon): > 12300 nM | GI50 (SK-MEL-5 melanoma): 58.8 nM | TGI (SK-MEL-5 melanoma): 561 nM | GI50 (COLO 205 colon): 43.3 nM | TGI (COLO 205 colon): 98.8 nM | GI50 (UACC-62 melanoma): 48.6 nM | TGI (UACC-62 melanoma): 139 nM | GI50 (T-47D breast): 77.6 nM | TGI (T-47D breast): 428 nM | GI50 (MCF7 breast): 76 nM | TGI (MCF7 breast): > 25000 nM | GI50 (SN12C renal): 83.7 nM | TGI (SN12C renal): > 25000 nM | GI50 (SK-MEL-2 melanoma): 57.2 nM | TGI (SK-MEL-2 melanoma): 138 nM | GI50 (SNB-75 CNS): 46.3 nM | TGI (SNB-75 CNS): 122 nM | GI50 (NCI-H460 lung): 75.4 nM | TGI (NCI-H460 lung): > 25000 nM | GI50 (786-0 renal): 87.1 nM | TGI (786-0 renal): > 25000 nM | GI50 (HL-60(TB) leukemia): 55.3 nM | TGI (HL-60(TB) leukemia): 163 nM | GI50 (OVCAR-4 ovarian): 90.3 nM | TGI (OVCAR-4 ovarian): 17800 nM | GI50 (HT29 colon): 51.3 nM | TGI (HT29 colon): 198 nM | GI50 (OVCAR-5 ovarian): 81.2 nM | TGI (OVCAR-5 ovarian): > 25000 nM | GI50 (SF-539 CNS): 50.2 nM | TGI (SF-539 CNS): 143 nM | GI50 (MALME-3M melanoma): 73.9 nM | TGI (MALME-3M melanoma): 204 nM | GI50 (SNB-19 CNS): 83.3 nM | TGI (SNB-19 CNS): > 25000 nM | GI50 (MDA-MB-435): 60.9 nM | TGI (MDA-MB-435): 250 nM | GI50 (IGROV1 ovarian): 101 nM | TGI (IGROV1 ovarian): > 25000 nM | GI50 (A498 renal): 48.3 nM | TGI (A498 renal): 126 nM | GI50 (SK-OV-3 ovarian): 151 nM | TGI (SK-OV-3 ovarian): > 25000 nM | GI50 (UO-31 renal): 70.7 nM | TGI (UO-31 renal): 210 nM | GI50 (NCI/ADR-RES ovarian): 67.9 nM | GI50 (LOX IMVI melanoma): 27.5 nM | TGI (LOX IMVI melanoma): > 25000 nM | GI50 (NCI-H226 lung): 54.6 nM | TGI (NCI-H226 lung): 180 nM | GI50 (SF-268 CNS): 72.1 nM | TGI (SF-268 CNS): 1420 nM | GI50 (KM12 colon): 62.9 nM | TGI (KM12 colon): 367 nM | GI50 (BT-549 breast): 71.4 nM | TGI (BT-549 breast): 6710 nM | GI50 (EKVX NSCLC): 70.9 nM
